Results as given in PMC7287649, “Hypoxia-Activated Prodrug Derivatives of Carbonic Anhydrase Inhibitors in Benzenesulfonamide Series: Synthesis and Biological Evaluation” (Molecules, 2020).
Several values for one entry are separate records, joined by “and”; a condition that tells them apart may be missing. Equal values may be shown once. Entries after “also recorded” stand apart in the source; their conditions may differ. Read-outs that look alike come from different tables or passages of the source.

Assays:
[1] = system: HT29 cells; test: alamarBlue cell viability assay, HT29; format: cell-based, human; conditions: for IC50: Homo sapiens, HT-29
Experimental: (§1) Human colorectal HCT116 and HT29 carcinoma cells were cultured in Dulbecco’s Modified Eagle Medium (DMEM, Lonza) supplemented with 10% fetal bovine serum and 1% PenStrep. Cells were exposed to anoxic conditions for 24 h in a hypoxic chamber (MACS VA500 microaerophilic workstation, Don Whitley Scientific, Bingley, UK) with an atmosphere consisting of ≤0.02% O2, 5% CO2 and residual N2. Normoxic cells were grown in regular incubators with 21% O2, 5% CO2 at 37 °C.
(§2) The cytotoxic efficacy of the bio-reducible derivatives was determined based on cell viability assays using alamarBlue® (Invitrogen). In short, HT29 and HCT116 were seeded in 96-well plates and allowed to attach overnight. On the following day, the plates were exposed to normoxia or anoxia and medium was replaced with pre-incubated normoxic or anoxic DMEM. Compounds were dissolved in DMSO (0.5%, Sigma-Aldrich) and final concentrations were made with pre-incubated anoxic or normoxic DMEM and added to the wells after 24 h of exposure. Cells were exposed to compounds for a total of 2 h, after which the medium was washed off and replaced with fresh medium. Cells were allowed to grow for an additional 72 h under normoxic conditions prior to measurement. Cells were incubated with alamarBlue® for 2 h during normoxic conditions, which corresponds with their metabolic function, a measure for cell viability. Fluorescence was measured using plate reader (FLUOstar Omega, BMG LABTECH, Ortenberg, Germany) using a fluorescence excitation wavelength of 540–580 nm.
(§3) GraphPad Prism (version 5.03, GraphPad Software, San Diego, CA, USA) was used for all statistical analyses. For the cytotoxic compounds, IC50 values were estimated with the curve of the log (inhibitor) vs. normalized response (Variable slope).

[2] = target: hCA IX (Homo sapiens, UniProt Q16790); test: stopped flow CO2 hydrase assay, hCA IX; conditions: for Selectivity Ratio KI hCA II/KI hCA IX: hCA II over hCA IX
Experimental: (§8) An Sx.18Mv-R Applied Photophysics (Oxford, UK) stopped-flow instrument was used for assaying the CA catalyzed CO2 hydration activity. […] In particular, CO2 was bubbled in distilled deionized water for 30 min so that the water was saturated (the concentration at a specific temperature is known from literature). In addition, a CO2 assay kit (from Merck, Darmstadt, Germany) was used to measure the concentration in variously diluted solutions obtained from the saturated one (which was kept at the same temperature and a constant bubbling during the experiments). […] The uncatalyzed rates were determined in the same manner and subtracted from the total observed rates. Stock solutions of inhibitor (0.1 mM) were prepared in distilled deionized water and dilutions up to 0.01 nM were done thereafter with distilled deionized water. Inhibitor and enzyme solutions were pre-incubated together for 15 min–2 h (or longer, i.e., 4–6 h) at room temperature (at 4 °C for the incubation periods longer than 15 min) prior to assay, in order to allow for the formation of the EI complex. The inhibition constants were obtained by non-linear least-squares methods using PRISM 3 and the Cheng–Prusoff equation, as reported earlier [38, 39], and represent the mean from at least three different determinations. hCA I was purchased by Merck (Darmstadt, Germany) and used without further purification, whereas all the other hCA isoforms were recombinant ones obtained in-house as reported earlier [40].

[3] = system: HCT116 cells; test: alamarBlue cell viability assay, HCT116; format: cell-based, human; conditions: for IC50: 2 h exposure, 72 h regrowth
Experimental: as §1, §2, §3

[4] = target: hCA II (Homo sapiens, UniProt P00918); test: stopped flow CO2 hydrase assay, hCA II
Experimental: as §8

[5] = target: hCA I (Homo sapiens, UniProt P00915); test: stopped flow CO2 hydrase assay, hCA I
hCA I, sequence (P00915 whole entry): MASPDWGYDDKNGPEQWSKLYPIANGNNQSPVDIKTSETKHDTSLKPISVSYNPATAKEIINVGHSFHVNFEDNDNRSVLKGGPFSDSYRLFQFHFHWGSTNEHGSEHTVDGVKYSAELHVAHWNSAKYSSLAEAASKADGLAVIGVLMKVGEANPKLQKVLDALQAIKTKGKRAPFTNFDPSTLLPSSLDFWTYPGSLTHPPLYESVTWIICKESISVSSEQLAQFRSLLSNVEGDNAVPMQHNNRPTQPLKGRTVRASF
Experimental: as §8

[6] = zebrafish embryo lethality (LC50); format: in vivo; conditions: AB, zebrafish, in vivo, zebrafish embryos from 24 hpf, end of 5 days of exposure
Experimental: (§4) The hypoxia-activated prodrugs were screened for their toxicity using 24-h post-fertilization zebrafish embryos as described earlier. The compounds were either dissolved in Embryonic medium (5.0 mM NaCl, 0.17 mM KCl, 0.33 mM CaCl2, 0.33 mM MgSO4, and 0.1% w/v Methylene Blue (Sigma-Aldrich, Darmstadt, Germany) or in dimethyl sulfoxide (DMSO) (Sigma-Aldrich, St. Louis, MO, USA) to prepare 100 mM stock solutions. Before the start of each experiment, the series of dilutions were made from the above stock in the embryonic medium.
(§5) The wild-type adult zebrafish (AB strains) were maintained at 28.5 °C in an incubator [35]. In each breeding tank, about embryos 3–5 pairs of male and female fish were set up overnight for collecting the embryos. The following morning, 1–2-h post-fertilization (hpf) embryos were collected in a sieve and rinsed with embryonic medium and kept the collected embryos in an incubator at 28.5 °C overnight. The toxicity evaluation studies of the compounds were performed using the fish that were 24-hpf. All the zebrafish experiments were performed at the zebrafish core facility, Tampere University, Finland, and according to the protocol used in our laboratory.
(§6) The LC50 values for all the three prodrugs were determined using 24-hpf embryos using […] different concentrations for each compound. We used a minimum of 30 zebrafish larvae for each concentration of the compound [28, 30, 36, 42]. The 24-hpf larvae were exposed to different concentrations of the inhibitors that ranged from 20 μM to […]. A dose response curve (DRC) was calculated using the DRM (model fitting function) of the DRC R package. The control group constituted an equal number of larvae not treated with any compound and the larvae that were treated with 1% DMSO. Toxicological evaluation studies were performed in 24-well plates (Corning V R Costar V R cell culture plates). In each well, we placed 1–2 24-hpf embryos in 1 mL of embryonic medium containing a diluted inhibitor. For control groups, 1% DMSO diluted in either embryonic medium or embryonic medium with no chemical compound. A minimum of three sets of experiments were carried out for each prodrug. The mortality of the larvae was checked every 24 h until 5 days after exposure to the prodrugs.

[7] = system: zebrafish embryos; test: zebrafish embryo lethality (LC50); format: in vivo
Experimental: as §4, §5, §6

[8] = system: zebrafish larvae; test: phenotypic analysis of zebrafish larvae; format: in vivo; conditions: for adverse effects on observable phenotypic parameters of the larvae: 20 μM–2 mM, 5 days post exposure; for swim bladder development: at 5 days; for phenotypic defects: at lower concentrations compared to 1b
Experimental: as §4, §5
After exposure to the prodrugs, we evaluated the effects of these compound on the zebrafish larvae by analyzing the following eight phenotypic parameters: (1) mortality, (2) hatching (3) edema (4) swimming pattern, (5) yolk sack utilization, (6) heartbeat, (7) body shape, and (8) swim bladder development. The images of the developing larvae were taken using a Lumar V1.12 fluorescence microscope (Carl Zeiss MicroImaging GmbH, Göttingen, Germany) attached to a camera with a 1.5 lens (Carl Zeiss MicroImaging GmbH, Göttingen, Germany). The images were analyzed with AxioVision software versions 4.7 and 4.8 as described in our standard protocol for the assessment of the toxicity and safety of chemical compounds.

[9] = system: HCT116 cells; test: clonogenic assay, HCT116; format: cell-based, human; conditions: HCT116, normoxia or anoxia, tested concentrations (10 to 100 μM), 30 min exposure
Experimental: as §1
(§7) Clonogenic survival HT29 and HCT116 cells were seeded with a high density for CA IX-dependent extracellular acidification. […] These cells were exposed to 23:30 h normoxic or anoxic conditions and 30 min to drugs after which cells were trypsinized and reseeded in triplicate with known cell numbers. Cells were allowed to grow for 9 (HCT116) and 14 (HT29) days to form colonies that were quantified after staining and fixation with 0.4% methylene blue in 70% ethanol. Surviving fractions were calculated and compared to control survival curves produced in the same experiment without compound treatment.

[10] = system: HT29 cells; test: clonogenic assay, HT29; format: cell-based, human; conditions: HT29, normoxia or anoxia, tested concentrations (10 to 100 μM), 30 min exposure
Experimental: as §1, §7

[11] = system: zebrafish larvae; test: swim pattern analysis of zebrafish larvae; format: in vivo; conditions: 160 µM (concentration that did not induce phenotypic defects), end of 5 days of exposure
Experimental: The swim pattern of the zebrafish larvae was studied after 5 days of exposure to these compounds. For the analyses of swim pattern, about 15–20 zebrafish larvae after 5 days of exposure to the compounds were placed in a 35 mm × 15 mm petri dish containing embryonic medium, and the larvae were allowed to settle in the petri dish for 1 min. The movement of the zebrafish larvae was observed under the microscope for 1 min. […] The swim patterns were compared with the control group zebrafish larvae that were not treated with any inhibitor.

[12] = system: zebrafish larvae; conditions: 100 μM; cited from earlier work
[13] = HT29, anoxia, 2 h exposure, 72 h regrowth, read-out: IC50A
[14] = HT29, normoxia, 2 h exposure, 72 h regrowth, read-out: IC50N
[15] = Homo sapiens, HCT-116, HCT116, anoxia, read-out: IC50A
[16] = Homo sapiens, HCT-116, HCT116, normoxia, read-out: IC50N
[17] = KI hCA I, mean from 3 different assays

| Compound | IC50 [1, 13] [µM] | IC50 [1, 14] [µM] | Ki [2] [µM] | Selectivity Ratio KI hCA II/KI hCA IX [2] | IC50 [3, 15] [µM] | IC50 [3, 16] [µM] | Ki [4] [µM] | Ki [5, 17] | adverse effects on observable phenotypic parameters of the larvae [8] | further results |
| --- | --- | --- | --- | --- | --- | --- | --- | --- | --- | --- |
| NS(=O)(=O)c1ccc(CNC(=O)OCCNC(=O)c2cc([N+](=O)[O-])ccc2N(CCCl)CCCl)cc1 [Compound 3c, 2-(2-(bis(2-chloroethyl)amino)-5-nitrobenzamido) ethyl (4-sulfamoylbenzyl)carbamate] | > 500 | > 500 | 0.0887 | 0.94 | > 500 | > 500 | 0.0837 | 2.18 µM | – | – |
| Cc1ncc([N+](=O)[O-])n1CCOC(=O)NCc1ccc(S(N)(=O)=O)cc1 [Compound 2c, 2-(2-methyl-5-nitro-1H-imidazol-1-yl) ethyl (4-sulfamoylbenzyl) carbamate] | > 500 | > 500 | 0.0141 | 0.28 | > 500 | > 500 | 0.004 | 0.0023 µM | – | – |
| Cc1ncc([N+](=O)[O-])n1CCOC(=O)NCCc1ccc(S(N)(=O)=O)cc1 [Compound 2b, 2-(2-methyl-5-nitro-1H-imidazol-1-yl) ethyl (4-sulfamoylphenethyl) carbamate] | > 500 | > 500 | 0.0121 | 0.35 | > 500 | > 500 | 0.0043 | 0.0037 µM | – | – |
| NS(=O)(=O)c1ccc(CCNC(=O)OCc2ccc([N+](=O)[O-])o2)cc1 [Compound 4b, (5-nitrofuran-2-yl)methyl (4-sulfamoylphenethyl) carbamate] | – | – | 0.0057 | 2.72 | – | – | 0.0155 | 0.084 µM and 0.0838 µM | adverse effect on hatching, swim bladder development, the utilization of the yolk sac, and the shape of the body and induced pericardial edema | LC50 [6]: ~500 µM; mortality of the larvae ([7]; 500 μM): significant mortality; swim bladder development ([8]; 250 μM): absence of a swim bladder; phenotypic defects ([8]; zebrafish larvae): phenotypic defects, such as edema and the absence of a swim bladder |
| NS(=O)(=O)c1ccc(CCNC(=O)OCCNC(=O)c2cc([N+](=O)[O-])ccc2N(CCCl)CCCl)cc1 [Compound 3b, 2-(2-(bis(2-chloroethyl)amino)-5-nitrobenzamido) ethyl (4-sulfamoylphenethyl) carbamate] | > 500 | > 500 | 0.0323 | 0.09 | 97.3 | 267 | 0.0031 | 0.083 µM | – | cytotoxicity ([1]; HT29, normoxia and anoxia, tested concentrations): no cytotoxicity; HCR (IC50N/IC50A) ([3]; HCT116, hypoxia selectivity cytotoxicity ratio): 2.7 and 2.74 |
| (5-nitrothiophen-2-yl)methyl(4-sulfamoylphenethyl)carbamate [Compound 5b] | – | – | – | 1.31 | – | – | – | – | adverse effect on hatching, swim bladder development, the utilization of the yolk sac, and the shape of the body and induced pericardial edema | Ki ([2]; read-out: KI hCA IX, stopped flow CO2 hydrase assay, mean from 3 different assays): 0.0151 µM; Ki ([4]; read-out: KI hCA II, stopped flow CO2 hydrase assay, mean from 3 different assays): 0.0198 µM; Ki ([5]; read-out: KI hCA I, mean from 3 different assays): 0.0647 µM; edema ([8]; as early as 2 days post exposure): induced edema; phenotypic defects ([8]; zebrafish larvae): phenotypic defects, such as edema and the absence of a swim bladder |
| Cn1c(COC(=O)NCCc2ccc(S(N)(=O)=O)cc2)cnc1[N+](=O)[O-] [Compound 1b, (1-methyl-2-nitro-1H-imidazol-5-yl) methyl (4-sulfamoylphenethyl) carbamate] | 204 | > 500 | 0.0076 | – | 59.3 | 149 | 0.0306 | 0.167 µM | minimal or no adverse effects | HCR (IC50N/IC50A) ([1]; HT29, hypoxia selectivity cytotoxicity ratio): >2.44; IC50N ([1]; HT29, normoxia, 2 h exposure, 72 h regrowth): no detectable cytotoxicity; clonogenic cell survival [9]: did not reduce clonogenic cell survival; LC50 [6]: ~1400 µM; mortality of the larvae ([7]; 1 mM, end of 5 days of exposure): did not cause any mortality; also recorded: no mortality observed; clonogenic cell survival [10]: did not reduce clonogenic cell survival; IC50 ([3]; HCT116, anoxia, read-out: IC50A): 59.4 µM; swim pattern [11]: did not induce phonotypic abnormalities in the larvae as well as abnormal or ataxic swim movement; swim bladder development ([8]; 1000 μM): absence of a swim bladder; phenotypic abnormalities ([8]; zebrafish larvae, 1 mM): no or minimal phenotypic abnormalities |
| Cc1ncc([N+](=O)[O-])n1CCNS(N)(=O)=O [DTP348] | – | – | – | – | – | – | – | – | – | neurotoxic effect [12]: induced a neurotoxic effect; swim pattern [12]: ataxic movement pattern |
